Test results published in ChEMBL document CHEMBL5584258, “Synthesis, biosimulation and pharmacological evaluation of benzimidazole derivatives with antihypertensive multitarget effect” (Bioorg Med Chem Lett, 2024).
Calls of active or inactive are those of the source. The rule behind the calls is not given here.

What was measured:
Rattus norvegicus [1] = assay: Antihypertensive activity in spontaneously hypertensive rat assessed as reduction in systolic blood pressure at 20 mg/kg, ip measured for 6 hrs by tail-cuff method; format: functional, organism-based
Rattus norvegicus [2] = species on record: Rattus norvegicus; assay: Antagonist activity at AT1 Ang II receptor in noradrenaline sensitized rat aorta assessed as inhibition of angiotensin II induced contraction at 10 uM preincubated for 15 mins followed by angiotensin II addition; format: tissue-based; details: filed as antagonist
Aorta [3] = assay: Vasorelaxant activity in rat aorta assessed as relaxation of noradrenaline-induced vascular contraction at 10 uM incubated in presence of endothelium; format: functional, tissue-based
[4] = molecular target: Voltage-gated L-type calcium channel (Rattus norvegicus, UniProt P22002+Q02485+P27732); assay: Inhibition of L-type calcium channel in rat aorta assessed as vasorelaxation of thoracic aorta in presence of endothelium; format: tissue-based
Aorta [5] = assay: Vasorelaxant activity in rat aorta assessed as relaxation of noradrenaline-induced vascular contraction at 10 uM relative to control; format: functional; design: scale not given: the % may be the effect or the level left
Aorta [6] = assay: Vasorelaxant activity in rat aorta assessed as relaxation of noradrenaline-induced vascular contraction at 10 uM incubated in absence of endothelium; format: functional, tissue-based
Rattus norvegicus [7] = species on record: Rattus norvegicus; assay: Antagonist activity at AT1 Ang II receptor in rat kidney assessed as reduction in angiotensin II induced renal perfusion pressure at 1 uM measured after […]; format: tissue-based; details: time […]
Rattus norvegicus [8] = assay: Antihypertensive activity in spontaneously hypertensive rat assessed as reduction in systolic blood pressure at 5 mg/kg, ip measured for 6 hrs by tail-cuff method; format: functional, organism-based

SMILES	Activity (Rattus norvegicus [2])	Activity (Rattus norvegicus [7])	also measured
O=C(O)c1ccc2[nH]c(SCc3ccc(-c4ccccc4-c4nnn[nH]4)cc3)nc2c1	Active		Activity (Rattus norvegicus [1]): Active; Activity (Aorta [3]): Active; IC50 [4]: 570 nM; Activity (Aorta [5]): 88.7%; Activity (Aorta [6]): Active; Activity (Rattus norvegicus [7]; filed as antagonist): Active
Cc1ccc2[nH]c(SCc3ccc(C(=O)Nc4nnn[nH]4)cc3)nc2c1	Active	inactive	
O=C(O)c1cccc2[nH]c(SCc3ccc(-c4ccccc4-c4nnn[nH]4)cc3)nc12	Active	inactive	Activity (Aorta [3]): Active; Activity (Aorta [5]): 57.3%
O=[N+]([O-])c1ccc2[nH]c(SCc3ccc(-c4ccccc4-c4nnn[nH]4)cc3)nc2c1	Active	inactive	
O=C(O)c1ccc2[nH]c(SCc3ccc(C(=O)Nc4nnn[nH]4)cc3)nc2c1	Active	inactive	
O=C(Nc1nnn[nH]1)c1ccc(CSc2nc3c(C(=O)O)cccc3[nH]2)cc1	Active	inactive	
O=C(Nc1nnn[nH]1)c1ccc(CSc2nc3cc([N+](=O)[O-])ccc3[nH]2)cc1	Active	inactive	
CCCc1nc2c(C)cc(-c3nc4ccccc4n3C)cc2n1Cc1ccc(-c2ccccc2C(=O)O)cc1	Active		Activity (Rattus norvegicus [8]): Active; Activity (Rattus norvegicus [7]; filed as antagonist): Active
